Source: US20120172503A1, “AMORPHOUS SOLID MODIFICATION OF BIS(2,4-DICUMYLPHENYL) PENTAERYTHRITOL DIPHOSPHITE” (priority 2002, published 2012)

Experiment: Dissolving rate and solubility in organic materials versus crystalline form
Conditions: in polymers and lubricants; compared to the prior art crystalline form

With “bis(2,4-dicumylphenyl)pentaerythritol diphosphite [Example 1]” the “rate of dissolving in organic materials” value was “faster rate of dissolving” and the “solubility in organic materials” value was “better solubility”.
